Earlier results as cited in patent US20230190793A1, “Pharmaceutical Preparation for Use in the Treatment of Systemic Inflammatory Response Syndrome (SIRS)” (priority 2020, published 2023).

**Q.** Which “Acid dissociation constant as pKa at 298 K” value (“Acid dissociation constant” below) does the source give for `OCl` [hypochlorous acid] here?
**A.** Its value is 7.25.

**Q.** With peroxochloric acid as the compound, how does the “Acid dissociation constant” value read?
**A.** The value was “approx. 6.2”.

**Q.** With `[O-][Cl+2]([O-])O` [chloric acid] as the compound, how does the “Acid dissociation constant” value read?
**A.** The value was 0.
